Results as given in US10125118B2, “Heteroaryl compounds and their use as therapeutic drugs” (Dong-A Socio Holdings Co., Ltd., priority 2015, dated 2018).

Key:
[1] = system: CD8-MerTK in Ba/F3-CDM cells; assay: In cell MER kinase assay, Ba/F3-CDM cell proliferation without IL-3 (Celltiter-Glo); type: cell-based, murine; conditions: 48 hours compound treatment, read-out: Cell growth inhibition (GI50)
Procedure: To establish an in cell kinase assay for MerTK kinase, the IL-3 dependent Ba/F3 cells of murine lymphoid origin was transfected with CD8-MerTK. […] For a routine cellular assay, Ba/F3-CDM cells were seeded at 2,000 cells per well in 384-well cell culture plate containing DMEM/10% FBS culture media and incubated for 24 hours before addition of compounds pre-diluted in culture media. Following compound treatment, cells were further incubated for 48 hours and the proliferation was measured. To discriminate a Ba/F3 growth inhibition by a specific inhibition of MerTK kinase following compound treatment vs growth inhibition due to a non-specific unintended cytotoxicity of compounds, we routinely carried out control sets of Ba/F3 cells in parallel that grown in IL3-supplemented growth media. In the presence of IL-3, the proliferation of Ba/F3 is no longer dependent on the MerTK activity. Cell growth and proliferation was measured with Celltiter-Glo™ system (Promega, USA) according to the manufacturer's instruction. The half-maximal growth inhibitory concentration (GI50) value was calculated with Prism6.0 software (GraphPad, USA).

[2] = target: human c-MER catalytic domain (Homo sapiens (Human), UniProt Q12866); assay: LanthaScreen TR-FRET kinase assay, c-MER; conditions: read-out: Mer TK inhibition (IC50); Biochemical IC50, TR-FRET, 10 uM ATP
human c-MER catalytic domain, sequence (Q12866 587-858): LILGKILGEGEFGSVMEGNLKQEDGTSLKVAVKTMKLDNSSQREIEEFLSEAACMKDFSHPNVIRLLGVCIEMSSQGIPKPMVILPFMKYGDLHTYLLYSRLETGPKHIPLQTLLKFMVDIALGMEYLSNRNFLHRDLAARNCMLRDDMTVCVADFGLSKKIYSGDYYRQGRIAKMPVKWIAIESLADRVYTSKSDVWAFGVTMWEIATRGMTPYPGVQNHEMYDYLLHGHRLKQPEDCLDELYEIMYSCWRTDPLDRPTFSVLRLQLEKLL

Compound | GI50 [1] [nM] | IC50 [2] [nM]
Cn1cc(-c2cnc(N)c(C(=O)N[C@H]3CCC[C@@H]3OCc3ccc(-c4ccc(CN5CCN(C6CC6)CC5)cc4)cc3)c2)cn1 [Example 184, 2-amino-N-((1S,2S)-2-((4′-((4-cyclopropylpiperazin-1-yl)methyl)-[1,1′-biphenyl]-4-yl)methoxy)cyclopentyl)-5-(1-methyl-1H-pyrazol-4-yl)nicotinamide] | < 100 | < 10
C[C@@H]1CN(Cc2ccc(-c3ccc(CO[C@H]4CCC[C@@H]4NC(=O)c4cc(-c5cnn(C)c5)cnc4N)cc3)cc2)CCN1 [Example 185, 2-amino-5-(1-methyl-1H-pyrazol-4-yl)-N-((1S,2S)-2-((4′-(((R)-3-methylpiperazin-1-yl)methyl)-[1,1′-biphenyl]-4-yl)methoxy)cyclopentyl)nicotinamide] | 100 to 500 | < 10
C[C@@H]1CN(Cc2ccc(-c3ccc(CO[C@H]4CCC[C@@H]4NC(=O)c4cc(-c5cnn(C)c5)cnc4N)cc3)cc2)CCN1C [Example 186, 2-amino-N-((1S,2S)-2-((4′-(((R)-3,4-dimethylpiperazin-1-yl)-methyl)-[1,1′-biphenyl]-4-yl)methoxy)cyclopentyl)-5-(1-methyl-1H-pyrazol-4-yl)-nicotinamide] | < 100 | < 10
C[C@@H]1CN(C)CCN1Cc1ccc(-c2ccc(CO[C@H]3CCC[C@@H]3NC(=O)c3cc(-c4cnn(C)c4)cnc3N)cc2)cc1 [Example 187, 2-amino-N-((1S,2S)-2-((4′-(((R)-2,4-dimethylpiperazin-1-yl)-methyl)-[1,1′-biphenyl]-4-yl)methoxy)cyclopentyl)-5-(1-methyl-1H-pyrazol-4-yl)-nicotinamide] | < 100 | < 10
CCC1CN(Cc2ccc(-c3ccc(CO[C@H]4CCC[C@@H]4NC(=O)c4cc(-c5cnn(C)c5)cnc4N)cc3)cc2)CCN1C (stereo partly drawn) [Example 188, 2-amino-N-((1S,2S)-2-((4′-((3-ethyl-4-methylpiperazin-1-yl)-methyl)-[1,1′-biphenyl]-4-yl)methoxy)cyclopentyl)-5-(1-methyl-1H-pyrazol-4-yl)-nicotinamide] | < 100 | < 10
C[C@@H]1CN(Cc2ccc(-c3ccc(CO[C@H]4CCC[C@@H]4NC(=O)c4cc(-c5cnn(C)c5)cnc4N)cc3)cc2)C[C@H](C)N1 [Example 189, 2-amino-N-((1S,2S)-2-((4′-((cis-3,5-dimethylpiperazin-1-yl)-methyl)-[1,1′-biphenyl]-4-yl)methoxy)cyclopentyl)-5-(1-methyl-1H-pyrazol-4-yl)-nicotinamide] | 100 to 500 | < 10
C[C@@H]1CN(Cc2ccc(-c3ccc(CO[C@H]4CCC[C@@H]4NC(=O)c4cc(-c5cnn(C)c5)cnc4N)cc3)cc2)C[C@H](C)N1C [Example 190, 2-amino-5-(1-methyl-1H-pyrazol-4-yl)-N-((1S,2S)-2-((4′-((cis-3,4,5-trimethylpiperazin-1-yl)methyl)-[1,1′-biphenyl]-4-yl)methoxy)cyclopentyl)-nicotinamide] | < 100 | < 10
CC1CN[C@@H](C)CN1Cc1ccc(-c2ccc(CO[C@H]3CCC[C@@H]3NC(=O)c3cc(-c4cnn(C)c4)cnc3N)cc2)cc1 (stereo partly drawn) [Example 191, 2-amino-N-((1S,2S)-2-((4′-((trans-2,5-dimethylpiperazin-1-yl)methyl)-[1,1′-biphenyl]-4-yl)methoxy)cyclopentyl)-5-(1-methyl-1H-pyrazol-4-yl)nicotinamide] | 100 to 500 | < 10
C[C@@H]1CN(C)[C@@H](C)CN1Cc1ccc(-c2ccc(CO[C@H]3CCC[C@@H]3NC(=O)c3cc(-c4cnn(C)c4)cnc3N)cc2)cc1 [Example 192, 2-amino-5-(1-methyl-1H-pyrazol-4-yl)-N-((1S,2S)-2-((4′-(((2R,5S)-2,4,5-trimethylpiperazin-1-yl)methyl)-[1,1′-biphenyl]-4-yl)methoxy)cyclopentyl)nicotinamide] | < 100 | < 10
CN(C)C1CCN(Cc2ccc(-c3ccc(CO[C@H]4CCC[C@@H]4NC(=O)c4cc(-c5cnn(C)c5)cnc4N)cc3)cc2)C1 (stereo partly drawn) [Example 193, 2-amino-N-((1S,2S)-2-((4′-((3-(dimethylamino)pyrrolidin-1-yl)methyl)-[1,1′-biphenyl]-4-yl)methoxy)cyclopentyl)-5-(1-methyl-1H-pyrazol-4-yl)nicotinamide] | < 100 | < 10
CN1CCN(Cc2ccc(-c3ccc(CO[C@H]4CCC[C@@H]4NC(=O)c4nc(-c5cnn(C)c5)cnc4N)cc3)cc2)CC1 [Example 194, 3-amino-6-(1-methyl-1H-pyrazol-4-yl)-N-((1S,2S)-2-((4′-((4-methylpiperazin-1-yl)methyl)-[1,1′-biphenyl]-4-yl)methoxy)cyclopentyl)pyrazine-2-carboxamide] | < 100 | < 10
CN1CCN(Cc2ccc(-c3ccc(CO[C@H]4CCC[C@@H]4NC(=O)c4cc(-c5cnn(C)c5)cnc4N)cc3)cc2F)CC1 [Example 195, 2-amino-N-((1S,2S)-2-((3′-fluoro-4′-((4-methylpiperazin-1-yl)-methyl)-[1,1′-biphenyl]-4-yl)methoxy)cyclopentyl)-5-(1-methyl-1H-pyrazol-4-yl)-nicotinamide] | < 100 | < 10
CN1CCN(Cc2c(F)cc(-c3ccc(CO[C@H]4CCC[C@@H]4NC(=O)c4cc(-c5cnn(C)c5)cnc4N)cc3)cc2F)CC1 [Example 196, 2-amino-N-((1S,2S)-2-((3′,5′-difluoro-4′-((4-methylpiperazin-1-yl)methyl)-[1,1′-biphenyl]-4-yl)methoxy)cyclopentyl)-5-(1-methyl-1H-pyrazol-4-yl)nicotinamide] | 100 to 500 | < 10
CN1CCN(Cc2ccc(-c3ccc(CO[C@H]4CCC[C@@H]4NC(=O)c4cc(-c5cnn(C)c5)cnc4N)cc3)cc2C(F)(F)F)CC1 [Example 197, 2-amino-5-(1-methyl-1H-pyrazol-4-yl)-N-((1S,2S)-2-((4′-((4-methylpiperazin-1-yl)methyl)-3′-(trifluoromethyl)-[1,1′-biphenyl]-4-yl)methoxy)-cyclopentyl)nicotinamide] | < 100 | < 10
Cc1cc(-c2ccc(CO[C@H]3CCC[C@@H]3NC(=O)c3cc(-c4cnn(C)c4)cnc3N)cc2)ccc1CN1CCN(C)CC1 [Example 198, 2-amino-5-(1-methyl-1H-pyrazol-4-yl)-N-((1S,2S)-2-((3′-methyl-4′-((4-methylpiperazin-1-yl)methyl)-[1,1′-biphenyl]-4-yl)methoxy)cyclopentyl)-nicotinamide] | < 100 | < 10
CN1CCN(Cc2ccc(-c3ccc(CO[C@H]4CCC[C@@H]4NC(=O)c4cc(-c5cnn(C)c5)cnc4N)cc3)cc2O)CC1 [Example 199, 2-amino-N-((1S,2S)-2-((3′-hydroxy-4′-((4-methylpiperazin-1-yl)methyl)-[1,1′-biphenyl]-4-yl)methoxy)cyclopentyl)-5-(1-methyl-1H-pyrazol-4-yl)nicotinamide] | < 100 | < 10
CN1CCN(Cc2ccc(-c3ccc(CO[C@H]4CCC[C@@H]4NC(=O)c4cc(-c5cnn(C)c5)cnc4N)cc3)cc2[N+](=O)[O-])CC1 [Example 200, 2-amino-5-(1-methyl-1H-pyrazol-4-yl)-N-((1S,2S)-2-((4′-((4-methylpiperazin-1-yl)methyl)-3′-nitro-[1,1′-biphenyl]-4-yl)methoxy)-cyclopentyl)nicotinamide] | 100 to 500 | < 10
